Where two headings read alike, the source gives them in different places.
Columns and labels:
LOX IMVI = assay: NCI-60 antiproliferative screen (SRB); assay type: cell-based, human; conditions: five-dose, 48 h; LOX IMVI; read-out: LC50 (the source's name)
MALME-3M = assay: NCI-60 antiproliferative screen (SRB); assay type: cell-based, human; conditions: five-dose, 48 h, MELME-3M
M14 = assay: NCI-60 antiproliferative screen (SRB); assay type: cell-based, human; conditions: 48 h
MDA-MB-435 = assay: NCI-60 antiproliferative screen (SRB); assay type: cell-based, human; conditions: 48 h
SK-MEL-5 = assay: NCI-60 antiproliferative screen (SRB); assay type: cell-based, human
UACC-62 = assay: NCI-60 antiproliferative screen (SRB); assay type: cell-based, human; conditions: 48 h
IGROV1 = assay: NCI-60 antiproliferative screen (SRB); assay type: cell-based, human; conditions: five-dose, 48 h, IGROV1
SK-OV-3 = assay: NCI-60 antiproliferative screen (SRB); assay type: cell-based, human; conditions: 48 h
CAKI-1 = assay: NCI-60 antiproliferative screen (SRB); assay type: cell-based, human; conditions: 48 h
SN12C = assay: NCI-60 antiproliferative screen (SRB); assay type: cell-based, human; conditions: 48 h
UO-31 = assay: NCI-60 antiproliferative screen (SRB); assay type: cell-based, human; conditions: five-dose, 48 h, UO-31
T-47D = assay: NCI-60 antiproliferative screen (SRB); assay type: cell-based, human; conditions: 48 h
[1] = tested on: NCI-60 human cancer cell lines; assay: NCI-60 screen, full panel summary; assay type: cell-based
Protocol: In a comprehensive test, compounds were assayed at a single dose concentration (10^−5 M) in the full panel of NCI-60 cancer cell lines.

SR = assay: NCI-60 antiproliferative screen (SRB); conditions: Homo sapiens, 48 h, read-out: Growth inhibition (%)
SNB-75 = assay: NCI-60 antiproliferative screen (SRB); conditions: Homo sapiens, SNB-75, 48 h, read-out: Growth inhibition (%)

Question: How did the CC50 (LOX IMVI) turn out when `O=C1Nc2cc(Cl)ccc2C1=Cc1ccc(OCc2cccnc2)cc1` (mixture of isomers) [Compound 5l, (E/Z)-6-Chloro-3-[4-(pyridin-3-ylmethoxy)benzylidene] indolin-2-one] was run?
Answer: 96.6 µM

Question: What about the GI50 (MALME-3M; Homo sapiens, Malme-3M) of the same compound?
Answer: 18.9 µM

Question: What about the TGI (MALME-3M) of the same compound?
Answer: 75.70 µM

Question: And the inhibition at 10 µM (M14; Homo sapiens, 10 µM single dose, M14 (Melanoma), read-out: Growth inhibition (%))?
Answer: 77.1%

Question: What about the GI50 (M14; Homo sapiens, five-dose, M14) of the same compound?
Answer: 29 µM

Question: What about the TGI (M14; five-dose, M14) of the same compound?
Answer: >100 µM

Question: What about the inhibition at 10 µM (MDA-MB-435; Homo sapiens, 10 µM single dose, MDA-MB-435 (Melanoma), read-out: Growth inhibition (%)) of the same compound?
Answer: 121%

Question: And the GI50 (MDA-MB-435; Homo sapiens, five-dose, MDA-MB-435)?
Answer: 4.44 µM

Question: What about the TGI (MDA-MB-435; five-dose, MDA-MB-435) of the same compound?
Answer: 76.90 µM

Question: And the CC50 (SK-MEL-5; Homo sapiens, SK-MEL-5, 48 h, five-dose, SK-MEL-5, read-out: LC50 (the source's name))?
Answer: 65.6 µM

Question: And the inhibition at 10 µM (SK-MEL-5; Homo sapiens, 10 µM single dose, 48 h, SK-MEL-5 (Melanoma), read-out: Growth inhibition (%))?
Answer: 153%

Question: What about the GI50 (SK-MEL-5; Homo sapiens, five-dose, 48 h, SK-MEL-5) of the same compound?
Answer: 3.46 µM

Question: And the CC50 (SK-MEL-5; five-dose, 48 h, SK-MEL-5, read-out: LC50 (the source's name))?
Answer: 71.5 µM

Question: What about the inhibition at 10 µM (UACC-62; Homo sapiens, 10 µM single dose, UACC-62 (Melanoma), read-out: Growth inhibition (%)) of the same compound?
Answer: 64.3%

Question: What about the GI50 (UACC-62; Homo sapiens, five-dose, UACC-62) of the same compound?
Answer: 7.7 µM

Question: And the TGI (UACC-62; five-dose, UACC-62)?
Answer: 43.50 µM

Question: And the GI50 (IGROV1; Homo sapiens, IGROV-1)?
Answer: 10.7 µM

Question: And the CC50 (IGROV1; Homo sapiens, IGROV-1, read-out: LC50 (the source's name))?
Answer: > 100 µM

Question: What about the TGI (IGROV1) of the same compound?
Answer: 3.32 µM

Question: And the inhibition at 10 µM (SK-OV-3; Homo sapiens, 10 µM single dose, SK-OV-3 (Ovarian), read-out: Growth inhibition (%))?
Answer: 32.2%

Question: And the GI50 (SK-OV-3; Homo sapiens, five-dose, SK-OV-3)?
Answer: 71.8 µM

Question: What about the CC50 (SK-OV-3; Homo sapiens, five-dose, SK-OV-3, read-out: LC50 (the source's name)) of the same compound?
Answer: > 100 µM

Question: And the TGI (SK-OV-3; five-dose, SK-OV-3)?
Answer: >100 µM

Question: What about the inhibition at 10 µM (CAKI-1; Homo sapiens, 10 µM single dose, CAKI-1 (Renal), read-out: Growth inhibition (%)) of the same compound?
Answer: 69.8%

Question: And the GI50 (CAKI-1; Homo sapiens, five-dose, CAKI-1)?
Answer: 4.44 µM

Question: And the CC50 (CAKI-1; Homo sapiens, five-dose, CAKI-1, read-out: LC50 (the source's name))?
Answer: > 100 µM

Question: And the TGI (CAKI-1; five-dose, CAKI-1)?
Answer: 26.90 µM

Question: What about the inhibition at 10 µM (SN12C; Homo sapiens, 10 µM single dose, SN12C (Renal), read-out: Growth inhibition (%)) of the same compound?
Answer: 66.1%

Question: What about the GI50 (SN12C; Homo sapiens, five-dose, SN12C) of the same compound?
Answer: 9.74 µM

Question: What about the CC50 (SN12C; Homo sapiens, five-dose, SN12C, read-out: LC50 (the source's name)) of the same compound?
Answer: > 100 µM

Question: And the TGI (SN12C; five-dose, SN12C)?
Answer: 66.60 µM

Question: What about the GI50 (UO-31; Homo sapiens) of the same compound?
Answer: 2.7 µM

Question: And the CC50 (UO-31; Homo sapiens, read-out: LC50 (the source's name))?
Answer: > 100 µM

Question: And the TGI (UO-31)?
Answer: >100 µM

Question: And the inhibition at 10 µM (T-47D; Homo sapiens, T47D, 10 µM single dose, T-47D (Breast), read-out: Growth inhibition (%))?
Answer: 69%

Question: What about the GI50 (T-47D; Homo sapiens, T47D, five-dose, T-47D) of the same compound?
Answer: 3.18 µM

Question: What about the CC50 (T-47D; Homo sapiens, T47D, five-dose, T-47D, read-out: LC50 (the source's name)) of the same compound?
Answer: > 100 µM

Question: And the TGI (T-47D; five-dose, T-47D)?
Answer: >100 µM

Question: What about the “Positive Cytostatic Effect (cell lines with percent growth from 0 to 50 / total number of cell lines)” value ([1]; 10 µM single dose) of the same compound?
Answer: 44/56

Question: And the “Positive Cytotoxic Effect (cell lines with percent growth of <0 / total number of cell lines)” value ([1]; 10 µM single dose)?
Answer: 4/56

Question: What about the “Sensitive/Total Cell Lines” value ([1]; 10 µM single dose) of the same compound?
Answer: 48/56

Question: What about the “The Most Sensitive Cell Line” value ([1]; 10 µM single dose) of the same compound?
Answer: SK-MEL-5

Question: And the “number of cell lines with cytostatic effects” value ([1]; 10 µM single dose)?
Answer: 44

Question: And the “number of cell lines with cytotoxic effects” value ([1]; 10 µM single dose)?
Answer: 4

Question: And the “Mean Growth Percent” value ([1]; 10 µM single dose, all NCI-60 cell lines)?
Answer: 72.81

Question: And the inhibition at 10 µM ([1]; Homo sapiens, 10 µM single dose, read-out: Range of Growth Inhibition on All Cells)?
Answer: 8.89 to 153%

Question: And the GI50 ([1]; Homo sapiens, five-dose, almost all cell lines, read-out: GI50 values, range over evaluated human cancer types)?
Answer: 2.7 to 77.1 µM

Question: And the CC50 ([1]; Homo sapiens, five-dose, excluding LOX IMVI, SK-MEL-5, SK-MEL-28, read-out: LC50 for most of the examined cancer cells)?
Answer: > 100 µM

Question: And the GI50 ([1]; Homo sapiens, five-dose, full panel, read-out: Full panel MG-MID (GI50))?
Answer: 12.2 µM

Question: What about the “TGI against the left-over cancer cells” value ([1]; five-dose) of the same compound?
Answer: > 100 µM

Question: And the inhibition at 10 µM (SR)?
Answer: 84.2%

Question: And the inhibition at 10 µM (SNB-75)?
Answer: 18.3%

Source: PMC11124822, “Discovery and Anticancer Screening of Novel Oxindole-Based Derivative Bearing Pyridyl Group as Potent and Selective Dual FLT3/CDK2 Kinase Inhibitor” (Pharmaceuticals, 2024)
